Counter-ions that a name gives are not always drawn.
system: not given; assay: not given

SMILES	melting point [°C]
COc1ccc(-c2ccc(C34CCN(CC3)C4)cn2)cc1F	125 to 126
CC(=O)c1cccc(-c2ccc(C34CCCN(CCC3)C4)cn2)c1 (as salt: HBr)	284 to 285
FC(F)(F)c1cccc(-c2ccc(C34CCCN(CCC3)C4)cn2)c1 (as salt: HBr)	155 to 157
c1ccc2c(-c3ccc(C45CCCN(CCC4)C5)cn3)cncc2c1 (as salt: HBr)	332 to 334
FC(F)(F)c1cc(-c2ccc(C34CCCN(CCC3)C4)cn2)cc(C(F)(F)F)c1 (as salt: HBr)	226 to 228
COc1ccccc1-c1ccc(C23CCCN(CCC2)C3)cn1 (as salt: HBr)	239 to 241
COc1ccc(-c2ccc(C34CCCN(CCC3)C4)cn2)c(OC)c1 (as salt: HBr)	198 to 200
FC(F)(F)Oc1cccc(-c2ccc(C34CCCN(CCC3)C4)cn2)c1 (as salt: HBr)	267 to 269
c1cc(-c2ccc(C34CCCN(CCC3)C4)cn2)c2ccncc2c1 (as salt: HBr)	246 to 248
COc1ccccc1-c1ccc(C23CCN(CC2)C3)cn1 (as salt: HBr)	114 to 116
COc1ccc(-c2ccc(C34CCN(CC3)C4)cn2)c(OC)c1 (as salt: HBr)	195 to 197
COc1ccc(OC)c(-c2ccc(C34CCN(CC3)C4)cn2)c1 (as salt: HBr)	152 to 154
FC(F)(F)c1ccccc1-c1ccc(C23CCN(CC2)C3)cn1 (as salt: HBr)	310 to 312
FC(F)(F)Oc1cccc(-c2ccc(C34CCN(CC3)C4)cn2)c1 (as salt: HCl)	152 to 154
COc1ccc(-c2ccc(C34CCN(CC3)C4)cn2)cc1OC (as salt: HCl)	247 to 249
FC(F)(F)c1cccc(-c2ccc(C34CCN(CC3)C4)cn2)c1 (as salt: HCl)	191 to 192
c1cc(-c2ccc(C34CCN(CC3)C4)cn2)c[nH]1 (as salt: HCl)	324 to 326
c1ccc2c(c1)nnn2-c1ccc(C23CCCN(CCC2)C3)cn1 (as salt: HCl)	258 to 260
c1ccc2c(c1)sc1ccc(-c3ccc(C45CCCN(CCC4)C5)cn3)cc12 (as salt: HCl)	242 to 244
COc1cccc(-c2ccc(C34CCCN(CCC3)C4)cn2)c1 (as salt: HCl)	267 to 269
Cn1cccc1-c1ccc(C23CCN(CC2)C3)cn1 (as salt: HCl)	248 to 250
c1cnc2ccc(-c3ccc(C45CCN(CC4)C5)cn3)cc2c1 (as salt: HCl) [Compound 12, 6-[5-(1-azabicyclo[2.2.1]hept-4-yl)pyridin-2-yl]quinoline]	327 to 328
c1cc2c(cc1-c1ccc(C34CCN(CC3)C4)cn1)OCO2 [Compound 16, 4-[6-(1,3-benzodioxol-5-yl)pyridin-3-yl]-1-azabicyclo[2.2.1]heptane]	256 to 258
Fc1cccc(-c2ccc(C34CCN(CC3)C4)cn2)c1 [Compound 19, 4-[6-(3-fluorophenyl)pyridin-3-yl]-1-azabicyclo[2.2.1]heptane]	88 to 90
c1cc(-c2ccc(C34CCN(CC3)C4)cn2)cc(-n2cccn2)c1 [Compound 113, 4-[6-(3-(pyrazol-1-yl)phenyl)pyridin-3-yl]-1-azabicyclo[2.2.1]heptane]	114 to 116

target: nicotinic receptors comprising the α7 subunit (Rattus norvegicus, UniProt Q05941); assay: biochemical; format: binding
Sequence (Q05941 23-502): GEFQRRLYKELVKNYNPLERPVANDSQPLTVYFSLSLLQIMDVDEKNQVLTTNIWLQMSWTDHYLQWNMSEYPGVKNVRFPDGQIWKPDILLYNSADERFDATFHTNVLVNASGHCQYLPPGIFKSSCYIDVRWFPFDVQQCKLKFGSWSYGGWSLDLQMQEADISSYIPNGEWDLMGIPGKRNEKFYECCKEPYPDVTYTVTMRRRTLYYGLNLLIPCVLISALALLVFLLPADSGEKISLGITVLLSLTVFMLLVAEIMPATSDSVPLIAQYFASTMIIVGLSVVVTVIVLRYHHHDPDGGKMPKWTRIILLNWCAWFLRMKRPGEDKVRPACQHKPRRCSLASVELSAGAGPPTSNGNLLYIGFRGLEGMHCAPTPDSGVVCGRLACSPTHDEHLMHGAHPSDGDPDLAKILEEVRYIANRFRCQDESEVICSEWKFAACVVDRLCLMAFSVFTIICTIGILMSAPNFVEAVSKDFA

SMILES	IC50 [nM]
c1cnc2ccc(-c3ccc(C45CCN(CC4)C5)cn3)cc2c1 [Compound 12, 6-[5-(1-azabicyclo[2.2.1]hept-4-yl)pyridin-2-yl]quinoline]	37.1
c1cc2c(cc1-c1ccc(C34CCN(CC3)C4)cn1)OCO2 [Compound 16, 4-[6-(1,3-benzodioxol-5-yl)pyridin-3-yl]-1-azabicyclo[2.2.1]heptane]	9.1
Fc1cccc(-c2ccc(C34CCN(CC3)C4)cn2)c1 [Compound 19, 4-[6-(3-fluorophenyl)pyridin-3-yl]-1-azabicyclo[2.2.1]heptane]	13.8
c1cc(-c2ccc(C34CCN(CC3)C4)cn2)cc(-n2cccn2)c1 [Compound 113, 4-[6-(3-(pyrazol-1-yl)phenyl)pyridin-3-yl]-1-azabicyclo[2.2.1]heptane]	4.7

From US8759343B2 (priority 2007, dated 2014)
